Source: patent US20080118918A1, “Compositions and Methods For Determining and Predicting Treatment Responses For Depression and Anxiety” (THE REGENTS of the University of California, priority 2004, published 2008)

How the values were obtained:
[1] = tested on: depressed Mexican-Americans; experiment: prospective randomized, placebo lead-in, double-blind treatment of fluoxetine or desipramine for eight weeks; HAM-A and HAM-D changes stratified by CRHR1 GAG haplotype; format: in vivo, human; conditions: fluoxetine 10 mg-40 mg/day vs desipramine 50 mg-200 mg/day, 8 weeks
Description: The primary outcome measures of the association analysis were the changes in the Hamilton rating scales for anxiety (HAM-A) and depression (HAM-D).
All patients were followed weekly and assessed for changes in the Hamilton rating scales for anxiety (HAM-A) and depression (HAM-D). Inclusion criteria in the study included a HAM-D of 18 or higher. Patients were classified into a high anxiety (HA) group if their HAM-A score was 18 or higher and in a low anxiety (LA) group if their HAM-A score was less than 18.
The study population consisted of 233 depressed subjects enrolled in an ongoing pharmacogenetic study of antidepressant treatment response to desipramine or fluoxetine. Data from the first 80 subjects who completed the protocol and for whom we had available genetic data are reported herein. […] All patients are Mexican-American men and women ages 21-68, with a current episode of major depression as diagnosed by the DSM-IV. In this study, all Mexican-American subjects had at least three grandparents born in Mexico. […]
Eighty subjects were divided into a low anxiety group (LA) with HAM-A score less than 18 at screening and a high anxiety group (HA), with HAM-A scores that were 18 or higher at screening. […] Demographics of the LA group and HA group were assessed for homogeneity using χ^2 or t-tests, as appropriate.

CNS CRH gene expression = conditions: in vivo; cited from earlier work

Structure (SMILES)	antidepressant effectiveness, comparison of the two drugs [1]	effects on downregulating CNS CRH gene expression (CNS CRH gene expression)
CNCCCN1c2ccccc2CCc2ccccc21 [desipramine]	no differences between the two drugs in terms of antidepressant effectiveness have been observed	equal effects on downregulating CNS CRH gene expression
CNCCC(Oc1ccc(C(F)(F)F)cc1)c1ccccc1 (stereo not shown) [fluoxetine]	no differences between the two drugs in terms of antidepressant effectiveness have been observed	equal effects on downregulating CNS CRH gene expression
